The values below come from patent publication US20230148417A1, “FUSED BICYCLIC DERIVATIVE, PREPARATION METHOD THEREFOR, AND PHARMACEUTICAL USE THEREOF” (Jiangsu Hengrui Pharmaceuticals Co., Ltd., priority 2020, published 2023).

One data set has as its target T1, AKT1 (Homo sapiens, UniProt P31749).
T1 construct: purchased Invitrogen P2999
Put plainly: AKT1 enzymatic assay (KinEASE-STK S3 HTRF kit). The data set is classed as biochemical. To be noted: 2 nM enzyme, 10 μM ATP, 2 μM S3-biotin. As for the experimental part:
(§1) The following methods were used to determine the inhibitory effect of the compounds of the present disclosure on the kinase activity of AKT1/AKT2/AKT3 in vitro. The experimental methodology is briefly described as follows:
(§2) The enzyme activity of AKT1 (Invitrogen, P2999), AKT2 (Invitrogen, PV3184) and AKT3 (Invitrogen, PV3185) was determined using a KinEASE-STK S3 kit (Cisbio, 62ST3PEC). Test compounds were each first subjected to 3-fold gradient dilution with DMSO from 500 μM to obtain a total of 11 concentrations. The 5× buffer in the kit was diluted to 1×buffer, and DTT (Sigma, 43816-10ML) and MgCl2 were added to make the buffer contain 1 mM DTT and 5 mM MgCl2. Compounds were each subjected to 20-fold dilution with 1× buffer for later use. The enzyme solution was obtained by diluting the AKT1/AKT2/AKT3 kinase with 1× buffer. ATP (Invitrogen, PV3227) and S3-biotin in the kit were diluted with 1× buffer to obtain a substrate-ATP mixture solution for later use. 2 μL of the enzyme solution and 4 μL of the compound solution were added to each well of a 384-well plate (Corning, 4513), and the mixture was incubated at room temperature for 30 min, followed by addition of 4 μL of the ATP and S3-biotin mixture solution. The resulting mixture was incubated at room temperature for 90 min. AKT1 enzyme reaction conditions were a final concentration of 2 nM for enzyme, a final concentration of 10 μM for ATP, and a final concentration of 2 μM for S3-biotin. AKT2 enzyme reaction conditions were a final concentration of 5 nM for enzyme, a final concentration of 10 μM for ATP, and a final concentration of 2 μM for S3-biotin. AKT3 enzyme reaction conditions were a final concentration of 0.4 nM for enzyme, a final concentration of 45 μM for ATP, and a final concentration of 2 μM for S3-biotin. The detection solution was prepared by diluting the S3-cryptate and streptavidin-XL665 with the detection buffer in the kit. After incubation, 10 μL of the detection solution was added to each well, the final concentration of S3-cryptate was a concentration obtained by 200-fold dilution of the stock solution, and the final concentration of streptavidin-XL665 was 125 nM. The mixture was incubated at room temperature for 60 min, values of signals emitted at […] and 620 nm after excitation at 337 nm were measured by using an HTRF module of a multi-functional microplate detector (BMG Labtech, PHERAstar FS), and the reading ratio was multiplied by 10,000 to obtain a specific value. Dose-response curves were drawn according to the concentration of the compounds and the specific values by using Graphpad Prism software, and the IC50 values for the inhibitory activity of the compounds were calculated.

For the next data set, the target named is T2, AKT2 (Homo sapiens, UniProt P31751).
T2 construct: purchased Invitrogen PV3184
T2 sequence (P31751 whole entry): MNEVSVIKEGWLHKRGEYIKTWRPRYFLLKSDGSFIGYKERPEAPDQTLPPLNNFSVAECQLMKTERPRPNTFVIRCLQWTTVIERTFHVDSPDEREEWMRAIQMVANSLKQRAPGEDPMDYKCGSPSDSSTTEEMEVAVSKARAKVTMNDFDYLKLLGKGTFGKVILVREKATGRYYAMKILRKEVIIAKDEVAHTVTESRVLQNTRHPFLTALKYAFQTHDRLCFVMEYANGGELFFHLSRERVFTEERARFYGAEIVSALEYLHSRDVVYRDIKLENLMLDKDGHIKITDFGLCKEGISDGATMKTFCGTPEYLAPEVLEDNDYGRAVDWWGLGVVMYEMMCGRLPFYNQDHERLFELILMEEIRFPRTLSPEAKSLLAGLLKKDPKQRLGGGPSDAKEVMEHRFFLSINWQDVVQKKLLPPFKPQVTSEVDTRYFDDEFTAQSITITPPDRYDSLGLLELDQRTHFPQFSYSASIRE
The data set is described as follows: AKT2 enzymatic assay (KinEASE-STK S3 HTRF kit). The data set is classed as biochemical. The settings on record: 5 nM enzyme, 10 μM ATP, 2 μM S3-biotin. As for the experimental part: as §1, §2

Data set [1] can be described thus: Pharmacokinetic study in rats, administration by injection (i.v.). In kind it is in vivo. To be noted: both sexes, rat, iv, SD rats, 1 mg/kg, plasma; for Vd: read-out: Apparent volume of distribution Vz; for AUC(0-t): read-out: Area under curve AUC0-t; for clearance: read-out: Clearance CL; for half-life: read-out: Half-life T1/2 (converted); for MRT: read-out: Residence time MRT. On the procedure:
The drug concentration in the plasma of the test animals (SD rats) at different time points after injection (i.v.) of the test compounds was determined by using an LC/MS/MS method. The pharmacokinetic performance in rats of the compounds of present disclosure was studied and their pharmacokinetic profile was evaluated.
8 SD rats, half male and half female, divided into 2 groups, purchased from Vital River Laboratory Animal Technology Co., Ltd.
A certain amount of the compound was weighed out, and 5% of DMSO, 5% of Tween 80 and 90% of normal saline were added to obtain a colorless and clear solution.
The rats were subjected to administration by injection, the administration dose was 1 mg/kg, and the administration volume was 5 mL/kg.
The test compound was administered by injection to the rats, and 0.2 mL of blood was collected from the orbit before administration and 5 min, 0.25 h, 0.5 h, 1.0 h, 2.0 h, 4.0 h, 8.0 h, 11.0 h and 24.0 h after administration. The blood was placed in an EDTA-K2 anticoagulation tube and centrifuged at 10,000 rpm for 1 min (4° C.), and plasma was separated out within 1 h and then stored at −20° C. for testing. The process from blood sampling to centrifugation was performed under an ice bath.
The content of the test compounds at different concentrations in the rat plasma after administration by injection was determined: 25 μL of rat plasma at each time point after administration was mixed with 50 μL of internal standard solution (camptothecin, 100 ng/mL) and 200 μL of acetonitrile, and the mixture was vortexed for 5 min and centrifuged for 10 min at 3700 rpm. 3 μL of supernatant of the plasma sample was taken for LC/MS/MS analysis.

T1 sequence (P31749 whole entry): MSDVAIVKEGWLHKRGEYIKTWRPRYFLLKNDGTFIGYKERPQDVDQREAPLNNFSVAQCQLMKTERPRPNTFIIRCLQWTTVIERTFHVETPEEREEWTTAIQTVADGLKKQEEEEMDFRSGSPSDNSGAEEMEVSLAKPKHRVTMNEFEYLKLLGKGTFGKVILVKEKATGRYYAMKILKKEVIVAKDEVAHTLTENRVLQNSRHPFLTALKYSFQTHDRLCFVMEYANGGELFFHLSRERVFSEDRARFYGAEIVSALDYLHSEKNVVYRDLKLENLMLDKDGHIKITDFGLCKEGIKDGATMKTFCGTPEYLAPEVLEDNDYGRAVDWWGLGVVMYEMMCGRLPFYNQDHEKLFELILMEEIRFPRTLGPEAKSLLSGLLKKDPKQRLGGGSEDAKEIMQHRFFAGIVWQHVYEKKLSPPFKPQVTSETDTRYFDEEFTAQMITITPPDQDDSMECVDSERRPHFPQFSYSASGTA

On AKT1, `CC(C)NC[C@@H](C(=O)N1[C@@H]2CC[C@H]1CN(c1ncnc3c1[C@H](C)C[C@H]3O)C2)c1ccc(Cl)cc1` [Example 4, (S)-2-(4-chlorophenyl)-1-((1R,5S)-3-((5R,7R)-7-hydroxy-5-methyl-6,7-dihydro-5H-cyclopenta[d]pyrimidin-4-yl)-3,8-diazabicyclo[3.2.1]octan-8-yl)-3-(isopropylamino)propan-1-one] yielded an IC50 of 0.0386 µM. In addition, half-maximal inhibition against AKT2 (IC50) required 0.0464 µM. In data set [1], the Vd was determined as 16.3 L/kg, the AUC(0-t) turned out to be 205 ng·h/mL, the clearance is 82.9 mL/min/kg and the half-life was 2.5 h. In addition, the MRT in data set [1] was determined as 2.2 h.
At AKT1, `CC(C)NC[C@@H](C(=O)N1C2CCC1CN(c1ncnc3c1C(C)(C)C(=O)N3)C2)c1ccc(Cl)cc1` [Example 2] registered a half-inhibitory concentration (IC50) of 0.06 µM. This compound showed an IC50 against AKT2 of 0.0741 µM. In data set [1], the Vd was found to be 13 L/kg, the AUC(0-t) stood at 221 ng·h/mL, the clearance was 75.4 mL/min/kg and the half-life was 2 h. In data set [1], the MRT amounted to 2.6 h.
